Source: PubChem BioAssay AID504419 (The Scripps Research Institute Molecular Screening Center, 2011)
The source made the active and inactive calls. No rule for the calls is given here.

Columns and labels:
NS3h 2a (JFH1) = experiment: strain-dependent HCV NS3h unwinding inhibition – biochemical, real-time fluorescence, genotypes 2a and 1b, Set 2, selectivity assay for HCV NS3 helicase inhibitor project, late-stage follow-up (AID 504419); conditions: Recombinant NS3 helicase
NS3h 1b (con1) = experiment: as above; conditions: Recombinant NS3 helicase

## O=C1OC(c2ccc(F)cc2)=C/C1=C/c1ccc([N+](=O)[O-])o1
NS3h 2a (JFH1)
  IC50: > 100 µM (inactive)
NS3h 1b (con1)
  IC50: > 100 µM (inactive)

## Cc1ccc(/C=C/C(=O)Nc2ccc([N+](=O)[O-])c(NC(=O)/C=C/c3ccc(C)o3)c2)o1
NS3h 2a (JFH1)
  IC50: > 100 µM (inactive)
NS3h 1b (con1)
  IC50: > 38.1 µM (inactive)

## C=C1c2cccc(O)c2C(O)=C2C(=O)[C@]3(O)C(O)=C(C(N)=O)C(=O)[C@@H](N(C)C)[C@@H]3[C@@H](O)[C@H]12
NS3h 2a (JFH1)
  IC50: > 100 µM (inactive)
NS3h 1b (con1)
  IC50: inactive

## COC(=O)c1ccc(C(=O)Nc2ccc(-c3nc4ccc(-c5nc6ccc(C)c(S(=O)(=O)O)c6s5)cc4s3)cc2)cc1
NS3h 2a (JFH1)
  IC50: 4.98 µM
NS3h 1b (con1)
  IC50: 6.85 µM

## CC(=O)c1ccc(-c2cccc(-c3cc(=O)oc4ccc(C(C)(C)C)cc34)c2)cc1
NS3h 2a (JFH1)
  IC50: > 100 µM (inactive)
NS3h 1b (con1)
  IC50: > 100 µM (inactive)

## Cc1ccc2nc(-c3ccc4nc(-c5ccc6nc(-c7ccc8nc(-c9ccc(N)cc9)sc8c7)sc6c5)sc4c3)sc2c1S(=O)(=O)O
NS3h 2a (JFH1)
  IC50: 1.98 µM
NS3h 1b (con1)
  IC50: 2.13 µM

## CCOc1ccc(N2C(=O)C3Sc4[nH]c(=O)sc4C(/C=C/c4ccccc4)C3C2=O)cc1 (centres undefined)
NS3h 2a (JFH1)
  IC50: > 100 µM (inactive)
NS3h 1b (con1)
  IC50: > 100 µM (inactive)

## Cc1ccc(C(=O)C2=C(O)C(=O)N(Cc3ccccc3)C2c2cc(Cl)cc(Cl)c2)o1 (centres undefined)
NS3h 2a (JFH1)
  IC50: > 100 µM (inactive)
NS3h 1b (con1)
  IC50: > 100 µM (inactive)

## CCOc1ccc(C2C(C(=O)c3ccc(C)o3)=C(O)C(=O)N2c2cc(C)on2)cc1 (centres undefined)
NS3h 2a (JFH1)
  IC50: > 100 µM (inactive)
NS3h 1b (con1)
  IC50: > 100 µM (inactive)

## COc1c(N2CCN(C(=S)NCc3ccccc3)C(C)C2)c(F)cc2c(=O)c(C(=O)O)cn(C3CC3)c12 (centres undefined)
NS3h 2a (JFH1)
  IC50: > 100 µM (inactive)
NS3h 1b (con1)
  IC50: > 100 µM (inactive)

## O=C(NC(=S)Nc1ccc(-c2ccc(CO)o2)cc1)c1cccs1
NS3h 2a (JFH1)
  IC50: > 100 µM (inactive)
NS3h 1b (con1)
  IC50: > 100 µM (inactive)

## Cc1ccc2nc(-c3ccc4nc(-c5ccc(NC(=O)c6ccccc6)cc5)sc4c3)sc2c1S(=O)(=O)O
NS3h 2a (JFH1)
  IC50: 4.07 µM
NS3h 1b (con1)
  IC50: inactive

## CC(C)C(C)(C#N)NC(=O)CSc1nc2scc(-c3ccco3)c2c(=O)n1-c1ccccc1 (centres undefined)
NS3h 2a (JFH1)
  IC50: > 100 µM (inactive)
NS3h 1b (con1)
  IC50: > 100 µM (inactive)

## CNc1ccc(Br)cc(C(=O)/C=C/c2cc(OC)ccc2OC)c1=O
NS3h 2a (JFH1)
  IC50: > 100 µM (inactive)
NS3h 1b (con1)
  IC50: > 100 µM (inactive)

## Cc1ccc2nc(-c3ccc4nc(NC(=O)c5ccc6ncoc6c5)sc4c3)sc2c1
NS3h 2a (JFH1)
  IC50: inactive
NS3h 1b (con1)
  IC50: inactive

## CN(C)c1ccc(O)c2c1C[C@H]1C[C@H]3[C@H](N(C)C)C(=O)C(C(N)=O)=C(O)[C@@]3(O)C(=O)C1=C2O
NS3h 2a (JFH1)
  IC50: > 100 µM (inactive)
NS3h 1b (con1)
  IC50: inactive

## Cc1ccc2nc(-c3ccc(NC(=O)c4ccc5ncoc5c4)cc3)sc2c1
NS3h 2a (JFH1)
  IC50: inactive
NS3h 1b (con1)
  IC50: inactive

## CCN(CC)S(=O)(=O)c1cccc(C(=O)N/N=C/c2ccc(O)c(O)c2O)c1
NS3h 2a (JFH1)
  IC50: > 100 µM (inactive)
NS3h 1b (con1)
  IC50: > 100 µM (inactive)

## COc1cc(OC)c2c(-c3ccccc3)cc(=O)oc2c1[C@H](CCN1CCN(c2ccccc2)CC1)c1ccc(N(C)C)cc1
NS3h 2a (JFH1)
  IC50: > 80.3 µM (inactive)
NS3h 1b (con1)
  IC50: > 33.2 µM (inactive)

## O=c1c2c(-c3ccco3)csc2nc(SCc2cn3ncccc3n2)n1-c1ccccc1
NS3h 2a (JFH1)
  IC50: > 100 µM (inactive)
NS3h 1b (con1)
  IC50: > 100 µM (inactive)

## Cc1ccc2nc(-c3ccc4nc(-c5ccc(NC(=O)c6ccc(F)cc6)cc5)sc4c3)sc2c1S(=O)(=O)O
NS3h 2a (JFH1)
  IC50: 2.75 µM
NS3h 1b (con1)
  IC50: 5.38 µM

## Cc1ccc2nc(-c3ccc4nc(-c5ccc(NC(=O)c6ccc7nc(-c8ccc(N)cc8)sc7c6)cc5)sc4c3)sc2c1S(=O)(=O)O
NS3h 2a (JFH1)
  IC50: 2.52 µM
NS3h 1b (con1)
  IC50: 7.57 µM

## COc1ccc(N=Nc2ccc(O)c3ncccc23)c(S(=O)(=O)N(C)C)c1
NS3h 2a (JFH1)
  IC50: > 100 µM (inactive)
NS3h 1b (con1)
  IC50: > 100 µM (inactive)

## Cc1ccc2nc(-c3ccc4nc(-c5ccc(NC(=O)c6ccc(N)cc6)cc5)sc4c3)sc2c1S(=O)(=O)O
NS3h 2a (JFH1)
  IC50: 4.39 µM
NS3h 1b (con1)
  IC50: 7.85 µM

## N#C/C(=C\c1ccc(O)c(O)c1)S(=O)(=O)c1ccccc1
NS3h 2a (JFH1)
  IC50: > 100 µM (inactive)
NS3h 1b (con1)
  IC50: > 100 µM (inactive)

## COc1ccc(S(=O)(=O)Nc2ccc(-c3nc4ccc(-c5nc6ccc(C)c(S(=O)(=O)O)c6s5)cc4s3)cc2)cc1
NS3h 2a (JFH1)
  IC50: inactive
NS3h 1b (con1)
  IC50: inactive

## Cc1cc(N2C(=O)C(O)=C(C(=O)c3ccc(C)o3)C2c2cc(Cl)cc(Cl)c2)no1 (centres undefined)
NS3h 2a (JFH1)
  IC50: > 100 µM (inactive)
NS3h 1b (con1)
  IC50: > 100 µM (inactive)

## Cc1ccc2nc(-c3ccc(NC(=O)c4ccc(F)cc4)cc3)sc2c1S(=O)(=O)O
NS3h 2a (JFH1)
  IC50: > 100 µM (inactive)
NS3h 1b (con1)
  IC50: > 100 µM (inactive)

## CCc1cc2c(=O)n(Cc3ccco3)c(SCc3c(C)noc3C)nc2s1
NS3h 2a (JFH1)
  IC50: > 100 µM (inactive)
NS3h 1b (con1)
  IC50: > 100 µM (inactive)

## Cc1ccc(C(=O)C2=C(O)C(=O)N(Cc3ccco3)C2c2cc(Cl)cc(Cl)c2)o1 (centres undefined)
NS3h 2a (JFH1)
  IC50: > 100 µM (inactive)
NS3h 1b (con1)
  IC50: > 100 µM (inactive)

## Cc1ccc2nc(-c3ccc4nc(-c5ccc(NC(=O)c6ccc(N(C)C)cc6)cc5)sc4c3)sc2c1S(=O)(=O)O
NS3h 2a (JFH1)
  IC50: 6.15 µM
NS3h 1b (con1)
  IC50: inactive

## Cc1cc(N2C(=O)C(O)=C(C(=O)c3ccc(C)o3)C2c2cccc(Cl)c2)no1 (centres undefined)
NS3h 2a (JFH1)
  IC50: > 100 µM (inactive)
NS3h 1b (con1)
  IC50: > 100 µM (inactive)

## Cc1ccc2nc(-c3ccc(NC(=O)c4ccc(F)cc4)cc3)sc2c1
NS3h 2a (JFH1)
  IC50: > 100 µM (inactive)
NS3h 1b (con1)
  IC50: > 100 µM (inactive)

## C/C(=N\NC(N)=S)c1cc(-c2ccccc2)c(-c2ccccc2)s1
NS3h 2a (JFH1)
  IC50: > 100 µM (inactive)
NS3h 1b (con1)
  IC50: > 100 µM (inactive)

## COc1cc(Br)cc(C2C(C(=O)c3ccc(C)o3)=C(O)C(=O)N2Cc2ccccc2)c1OC (centres undefined)
NS3h 2a (JFH1)
  IC50: > 100 µM (inactive)
NS3h 1b (con1)
  IC50: > 100 µM (inactive)

## CN(C)S(=O)(=O)c1cccc(NC(=S)N/N=C/c2cc(Br)ccc2O)c1
NS3h 2a (JFH1)
  IC50: > 100 µM (inactive)
NS3h 1b (con1)
  IC50: > 100 µM (inactive)

## COc1ccc([C@H]2C[C@@H](c3ccccc3)Oc3cc(OC)c(OC)c(OC)c32)cc1
NS3h 2a (JFH1)
  IC50: > 100 µM (inactive)
NS3h 1b (con1)
  IC50: > 100 µM (inactive)

## CCCCCCCCCc1nc2sc3c(c2c(=O)n1NC(=O)c1ccccc1[N+](=O)[O-])CC(C)(C)OC3
NS3h 2a (JFH1)
  IC50: > 100 µM (inactive)
NS3h 1b (con1)
  IC50: > 100 µM (inactive)

## NS(=O)(=O)c1ccc2nc(NC(=O)c3ccc4ncsc4c3)sc2c1
NS3h 2a (JFH1)
  IC50: > 10.9 µM (inactive)
NS3h 1b (con1)
  IC50: inactive

## O=C(Nc1nc(-c2ccco2)c(-c2ccco2)s1)C1CCC1
NS3h 2a (JFH1)
  IC50: > 100 µM (inactive)
NS3h 1b (con1)
  IC50: > 16.4 µM (inactive)

## O=C(c1ccc2nc(-c3ccco3)c(-c3ccco3)nc2c1)N1CCN(c2ccccc2)CC1
NS3h 2a (JFH1)
  IC50: > 100 µM (inactive)
NS3h 1b (con1)
  IC50: > 100 µM (inactive)

## COc1cc(Br)cc(C2C(C(=O)c3ccc(C)o3)=C(O)C(=O)N2c2cc(C)on2)c1OC (centres undefined)
NS3h 2a (JFH1)
  IC50: > 100 µM (inactive)
NS3h 1b (con1)
  IC50: > 100 µM (inactive)
